From ChEMBL document CHEMBL5120950, “Discovery and Mechanistic Study of Mycobacterium tuberculosis PafA Inhibitors” (J Med Chem, 2022)
In brackets after ≈: the same amount, converted by molar mass. Activity calls are given as the source filed them. The rule behind the calls is not given here.

Tests used:
[1] = biological target: T1, Pup--protein ligase (Mycobacterium tuberculosis) (UniProt P9WNU7); assay: Activation of Mycobacterium tuberculosis PafA expressed in Escherichia coli BL-21(DE3) assessed as pup-ylation using Mtb PanB substrate at 20 uM by SDS-PAGE analysis; conditions: filed as activator
T1 sequence (whole entry): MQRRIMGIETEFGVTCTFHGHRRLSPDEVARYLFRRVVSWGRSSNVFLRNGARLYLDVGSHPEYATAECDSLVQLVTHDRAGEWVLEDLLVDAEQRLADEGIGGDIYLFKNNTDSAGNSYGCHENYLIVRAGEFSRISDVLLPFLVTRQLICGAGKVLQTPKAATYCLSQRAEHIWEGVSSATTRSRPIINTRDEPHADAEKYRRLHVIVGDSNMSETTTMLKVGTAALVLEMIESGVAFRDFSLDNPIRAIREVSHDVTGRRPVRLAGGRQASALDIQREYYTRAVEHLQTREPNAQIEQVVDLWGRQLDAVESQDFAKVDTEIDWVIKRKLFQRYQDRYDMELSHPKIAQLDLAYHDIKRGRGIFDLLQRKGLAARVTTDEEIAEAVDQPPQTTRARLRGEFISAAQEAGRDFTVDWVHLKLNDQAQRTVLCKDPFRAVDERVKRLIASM

[2] = biological target: T1, Pup--protein ligase (Mycobacterium tuberculosis); assay: Activation of Mycobacterium tuberculosis PafA expressed in Escherichia coli BL-21(DE3) assessed as pup-ylation using Mtb InhA substrate at 20 uM by SDS-PAGE analysis; conditions: filed as activator
[3] = biological target: T1, Pup--protein ligase (Mycobacterium tuberculosis); assay: Activation of Mycobacterium tuberculosis PafA expressed in Escherichia coli BL-21(DE3) assessed as pup-ylation using Mtb PknB substrate at 20 uM by SDS-PAGE analysis; conditions: filed as activator
[4] = biological target: T1, Pup--protein ligase (Mycobacterium tuberculosis); assay: Activation of Mycobacterium tuberculosis PafA expressed in Escherichia coli BL-21(DE3) assessed as pup-ylation using Mtb KasA substrate at 20 uM by SDS-PAGE analysis; conditions: filed as activator
[5] = biological target: T1, Pup--protein ligase (Mycobacterium tuberculosis); assay: Activation of Mycobacterium tuberculosis PafA expressed in Escherichia coli BL-21(DE3) assessed as pup-ylation using Mtb DHFR substrate at 20 uM by SDS-PAGE analysis; conditions: filed as activator
[6] = biological target: T1, Pup--protein ligase (Mycobacterium tuberculosis); assay: Inhibition of Mycobacterium tuberculosis PafA expressed in Escherichia coli BL-21(DE3) assessed as inhibition of pup-ylation using Mtb PanB substrate at 20 uM by SDS-PAGE analysis
[7] = biological target: T2, Pup--protein ligase (Corynebacterium glutamicum) (UniProt Q8NQE1); assay: Inhibition of Corynebacterium glutamicum PafA expressed in Escherichia coli BL-21(DE3) assessed as inhibition of pup-ylation using Mtb PanB substrate at 20 uM by SDS-PAGE analysis
T2 sequence (whole entry): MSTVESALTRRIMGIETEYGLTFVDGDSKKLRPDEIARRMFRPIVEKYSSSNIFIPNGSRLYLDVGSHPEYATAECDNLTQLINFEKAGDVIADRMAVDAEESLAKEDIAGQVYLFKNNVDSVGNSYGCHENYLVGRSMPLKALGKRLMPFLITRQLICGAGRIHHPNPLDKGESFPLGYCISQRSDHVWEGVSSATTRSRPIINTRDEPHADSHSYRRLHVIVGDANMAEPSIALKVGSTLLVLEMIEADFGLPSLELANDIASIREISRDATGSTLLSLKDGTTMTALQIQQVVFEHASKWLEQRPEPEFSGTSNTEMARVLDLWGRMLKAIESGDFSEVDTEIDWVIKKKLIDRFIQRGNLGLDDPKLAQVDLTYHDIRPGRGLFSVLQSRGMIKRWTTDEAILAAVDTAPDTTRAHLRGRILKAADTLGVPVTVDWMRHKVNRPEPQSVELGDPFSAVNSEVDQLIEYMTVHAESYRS

Pup--protein ligase [8] = biological target: T3, Pup--protein ligase (Mycobacterium tuberculosis, UniProt P9WNU7); assay: Inhibition of Mycobacterium tuberculosis PafA expressed in Escherichia coli BL-21(DE3) assessed as inhibition of pup-ylation using Mtb PanB substrate by SDS-PAGE analysis
T3 sequence (P9WNU7 whole entry): T1 sequence (whole entry)

[9] = biological target: T1, Pup--protein ligase (Mycobacterium tuberculosis); assay: Binding affinity to Mycobacterium tuberculosis PafA expressed in Escherichia coli BL-21(DE3) assessed as increase in thermal stability at 40 uM incubated for 15 mins at 25 degC followed by incubated at 52 to 72 degC for 5 mins by CESTA analysis
[10] = system: Mycobacterium tuberculosis; assay: Antimycobacterial activity against Mycobacterium tuberculosis H37Ra assessed as inhibition of growth measured after 7 days by microplate reader; type: functional; conditions: 168 h, time 7 day
[11] = biological target: T1, Pup--protein ligase (Mycobacterium tuberculosis); assay: Inhibition of Mycobacterium tuberculosis PafA expressed in Escherichia coli BL-21(DE3) assessed as inhibition of pup-ylation using Mtb InhA substrate at 20 uM by SDS-PAGE analysis
[12] = biological target: T1, Pup--protein ligase (Mycobacterium tuberculosis); assay: Inhibition of Mycobacterium tuberculosis PafA expressed in Escherichia coli BL-21(DE3) assessed as inhibition of pup-ylation using Mtb KasA substrate at 20 uM by SDS-PAGE analysis
[13] = biological target: T1, Pup--protein ligase (Mycobacterium tuberculosis); assay: Inhibition of Mycobacterium tuberculosis PafA expressed in Escherichia coli BL-21(DE3) assessed as inhibition of pup-ylation using Mtb PknB substrate at 20 uM by SDS-PAGE analysis
[14] = biological target: T1, Pup--protein ligase (Mycobacterium tuberculosis); assay: Inhibition of Mycobacterium tuberculosis PafA expressed in Escherichia coli BL-21(DE3) assessed as inhibition of pup-ylation using Mtb DHFR substrate at 20 uM by SDS-PAGE analysis
[15] = biological target: T1, Pup--protein ligase (Mycobacterium tuberculosis); assay: Binding affinity to Mycobacterium tuberculosis PafA expressed in Escherichia coli BL-21(DE3) assessed as increase in thermal stability by measuring change in melting temperature in at 50 uM by CESTA analysis
Pup--protein ligase [16] = biological target: T4, Pup--protein ligase (Corynebacterium glutamicum, UniProt Q8NQE1); assay: Activation of Corynebacterium glutamicum PafA expressed in Escherichia coli BL-21(DE3) assessed as pup-ylation using Mtb PanB substrate by SDS-PAGE analysis
T4 sequence (Q8NQE1 whole entry): T2 sequence (whole entry)

Pup--protein ligase [17] = biological target: T4, Pup--protein ligase; assay: Activation of Corynebacterium glutamicum PafA expressed in Escherichia coli BL-21(DE3) assessed as pup-ylation using Mtb KasA substrate by SDS-PAGE analysis

COCC[n+]1c2c(n(Cc3cnccn3)c1C)C(=O)c1ccccc1C2=O
Activity [1]: Active | Activity [2]: Active | Activity [3]: Active | Activity [4]: Active | Activity [5]: Active

Oc1ccc(Cl)cc1Sc1cc(Cl)cc(Cl)c1
inhibition [6]: Active

Oc1ccccc1Sc1cc(Cl)cc(Cl)c1
inhibition [6]: Active

Oc1ccccc1Sc1cc(Cl)cc(Cl)c1Cl
inhibition [6]: Active

O=C(O)/C=C/c1ccc(-c2ccc(O)c(C34CC5CC(CC(C5)C3)C4)c2)cc1 [ADAROTENE]
inhibition [6]: Active | inhibition [7]: Active | IC50 (Pup--protein ligase [8]): 17.9 µM | Activity [9]: Active | MIC90 [10]: 164 µM (≈ 61.4 µg/mL) | inhibition [11]: Active | inhibition [12]: Active | inhibition [13]: Active | inhibition [14]: Active | ΔTm [15]: 2.5 °C

Oc1c(Cl)cc(Cl)cc1Sc1cc(Cl)cc(Cl)c1O [BITHIONOL]
inhibition [6]: Active | IC50 (Pup--protein ligase [8]): 15.9 µM | MIC90 [10]: 89.9 µM (≈ 32 µg/mL)

COCCn1c2c([n+](Cc3cnccn3)c1C)C(=O)c1ccccc1C2=O [SEPANTRONIUM]
EC50 (Pup--protein ligase [16]): 1.7 µM | EC50 (Pup--protein ligase [17]): 2 µM
